Experimental data as given in patent US20200390755A1, “COMPOUND FOR TREATING NERVOUS SYSTEM DISEASES AND USE THEREOF” (SHAANXI MICOT TECHNOLOGY CO., LTD., priority 2018, published 2020).

Columns and labels:
WT mice [1] = assay: Rotarod experiment, WT mice; type: in vivo, mouse; settings: 5 mg/kg/d intragastric
Method: 7-week-old N171-82Q HD male mice were paired with female B6C3F1/J hybrid mice to obtain newborn mice. From 21 days of age, male mice were housed in separate cages. 0.5 cm of mouse tail tissue was removed to extract DNA to determine the genotype of the mouse, such that N171-82Q HD mice and WT mice needed for the experiment were obtained. The mice were randomly divided into WT Vehicle group (normal mice), WT test compound group (administration group of normal mice, 5 mg/kg/d, n=10), HD Vehicle group (blank group of HD mice, n=15), HD test compound group (administration groups 1-5 of HD mice, 5 mg/kg/d, n=10). The test compound was suspended in 1% CMC-Na solution and administered by intragastric administration until the end of the study. The weights of the mice were measured every week. Behavioral tests were performed at 12 weeks, 18 weeks, and 24 weeks of age to investigate motor function. At 20 weeks, 3 samples of tissue from each group were used for western blotting and immunohistochemistry. At 24 weeks, MRI scans were performed. At the end of the study, the effect of the test compound on the mortality of mice was evaluated. The software Sigmaplot 13.0 was used for statistical analysis of the data, and the data of each group was expressed as mean standard error (x±SEM). Behavioral test results were analyzed using two-way (genotype and processing factor) ANOVA and post-ho tests, the comparison and statistics of weight data were performed using two-way (genotype and age) ANOVA of repeated measures, and mortality was counted using Kaplan-Meier method. Other measurement data were analyzed by one-way ANOVA. P<0.05 was considered statistically significant. The motor function of mice was evaluated by the rotarod experiment and three types of balance beam experiments. The shorter the time for mouse to cross the balance beam, and the longer the time to drop, the stronger the coordination ability of the mouse. […] The time the mouse remained on the rod, i.e., drop latent period, was recorded to indicate its motor coordination ability. […]

WT mice [2] = assay: DARPP32 protein level in striatum by Western blotting, WT mice; type: in vivo, mouse; settings: 5 mg/kg/d until 25 weeks, WT Vehicle = 100, n = 3
Method: 7-week-old N171-82Q HD male mice were paired with female B6C3F1/J hybrid mice to obtain newborn mice. From 21 days of age, male mice were housed in separate cages. 0.5 cm of mouse tail tissue was removed to extract DNA to determine the genotype of the mouse, such that N171-82Q HD mice and WT mice needed for the experiment were obtained. The mice were randomly divided into WT Vehicle group (normal mice), WT test compound group (administration group of normal mice, 5 mg/kg/d, n=10), HD Vehicle group (blank group of HD mice, n=15), HD test compound group (administration groups 1-5 of HD mice, 5 mg/kg/d, n=10). The test compound was suspended in 1% CMC-Na solution and administered by intragastric administration until the end of the study. The weights of the mice were measured every week. Behavioral tests were performed at 12 weeks, 18 weeks, and 24 weeks of age to investigate motor function. At 20 weeks, 3 samples of tissue from each group were used for western blotting and immunohistochemistry. At 24 weeks, MRI scans were performed. At the end of the study, the effect of the test compound on the mortality of mice was evaluated. […] The total protein in the striatum tissue was extracted, and the protein level of DARPP 32 was detected by Western blotting experiment. […] The protein was extracted, and the protein level of DARPP 32 was detected by Western blotting.

Q: How did the “Time to drop (drop latent period), rotarod” value (“Time to drop” for short) (WT mice [1]; 12 w) turn out when `O=c1cc(-c2ccc(N3CCCCC3)cc2)oc2c(O)c(O)ccc12` [Example 1, 7,8-dihydroxy-2-(4-(piperidin-1-yl)phenyl)-4H-chromen-4-one] was run?
A: 98.33 ± 30.03 s

Q: And the “Time to drop” value (WT mice [1]; 18 w)?
A: 78.97 ± 23.84 s

Q: What about the “Time to drop” value (WT mice [1]; 24 w) of the same molecule?
A: 73.72 ± 18.25 s

Q: And the “Relative intensity of DARPP32 protein” value (WT mice [2])?
A: 96.066 ± 5.805
